Measurements: publication PMC8863579, “Effects of pharmacological inhibition of the sodium‐dependent phosphate cotransporter 2b (NPT2b) on intestinal phosphate absorption in mouse and rat models” (Pharmacology Research & Perspectives, 2022)
“And” between values parts separate entries of the source, which are not always exact repeats. Equal entries are not always repeated.

Columns and labels:
human NPT2b = molecular target: T1, human NPT2b (Homo sapiens, UniProt O95436); experiment: 33P-phosphate uptake in CHO cells expressing human NPT2b; type: cell-based; details: geometric mean; 2.5 µM phosphate, 60 min, room temperature
T1 construct: Full-Length cDNA Cloning and Generation of Cell Lines Over-Expressing Human, Mouse, and Rat NPT2b; host or cells: CHO-K1 / T-REx CHO, pcDNA5/TO, tetracycline-induced
T1 sequence (O95436 1-690): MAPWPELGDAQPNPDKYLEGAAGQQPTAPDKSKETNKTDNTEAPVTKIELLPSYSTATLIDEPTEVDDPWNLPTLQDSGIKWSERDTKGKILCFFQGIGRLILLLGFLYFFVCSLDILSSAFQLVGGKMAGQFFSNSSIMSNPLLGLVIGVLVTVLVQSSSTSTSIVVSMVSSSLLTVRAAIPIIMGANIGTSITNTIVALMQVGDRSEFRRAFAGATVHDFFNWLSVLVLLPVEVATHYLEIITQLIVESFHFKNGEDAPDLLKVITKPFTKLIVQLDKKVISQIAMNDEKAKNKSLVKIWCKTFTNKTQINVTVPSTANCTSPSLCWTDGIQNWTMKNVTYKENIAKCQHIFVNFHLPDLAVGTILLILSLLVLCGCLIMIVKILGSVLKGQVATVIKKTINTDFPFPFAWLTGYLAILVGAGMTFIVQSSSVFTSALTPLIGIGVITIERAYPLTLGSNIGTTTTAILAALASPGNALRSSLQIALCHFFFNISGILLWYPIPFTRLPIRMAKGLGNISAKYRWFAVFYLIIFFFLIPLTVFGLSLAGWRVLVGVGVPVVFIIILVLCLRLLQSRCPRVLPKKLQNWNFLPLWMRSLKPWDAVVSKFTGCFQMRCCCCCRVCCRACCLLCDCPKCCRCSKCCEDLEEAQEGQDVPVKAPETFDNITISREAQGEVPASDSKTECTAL
Protocol: (§1) T‐Rex™ Chinese Hamster Ovary cells (CHO; Thermo Fisher Scientific) stably expressing human, mouse, or rat NPT2b under a tetracycline‐inducible promoter were generated using standard cDNA transfection and clone selection procedures (see Supporting Information). Cells were plated in 96‐well CytoStar‐T® scintillating microplates and were incubated overnight in growth media plus 100 ng/ml of tetracycline to induce expression of NPT2b. The next day, cells were washed 3 times with 200 µl assay buffer (137 mM NaCl, 5.4 mM KCl, 2.8 mM CaCl2, 1.2 mM MgSO4, and 14 mM Tris‐HCl buffer, pH 7.5). LY3358966 serially diluted 1‐to‐3 in DMSO was added to cells with assay buffer. An equal volume of H3 ^33PO4 (PerkinElmer) in assay buffer supplemented with 5 µM potassium phosphate was then added to initiate radiolabeled phosphate (^33P‐phosphate) uptake. The final phosphate concentration was 2.5 µM and the final DMSO concentration was 1%. Following a 60‐min incubation at room temperature, an equal volume of assay buffer containing 400 µM phloretin was added to stop ^33P‐phosphate uptake. The plate was immediately read on a Wallac MicroBeta Trilux liquid scintillation counter. Percent inhibition at all concentrations tested was calculated, and IC50 values were then determined using a 4‐parameter logistic curve fitting equation.
(§2) The vendors for target cDNA are listed in supplemental Table 1. […]

mouse NPT2b = molecular target: T2, mouse NPT2b (Mus musculus, UniProt Q9DBP0); experiment: 33P-phosphate uptake in CHO cells expressing mouse NPT2b; type: cell-based; details: geometric mean; 2.5 µM phosphate, 60 min, room temperature
T2 construct: Full-Length cDNA Cloning and Generation of Cell Lines Over-Expressing Human, Mouse, and Rat NPT2b; host or cells: CHO-K1 / T-REx CHO, pcDNA5/TO, tetracycline-induced
T2 sequence (Q9DBP0 1-697): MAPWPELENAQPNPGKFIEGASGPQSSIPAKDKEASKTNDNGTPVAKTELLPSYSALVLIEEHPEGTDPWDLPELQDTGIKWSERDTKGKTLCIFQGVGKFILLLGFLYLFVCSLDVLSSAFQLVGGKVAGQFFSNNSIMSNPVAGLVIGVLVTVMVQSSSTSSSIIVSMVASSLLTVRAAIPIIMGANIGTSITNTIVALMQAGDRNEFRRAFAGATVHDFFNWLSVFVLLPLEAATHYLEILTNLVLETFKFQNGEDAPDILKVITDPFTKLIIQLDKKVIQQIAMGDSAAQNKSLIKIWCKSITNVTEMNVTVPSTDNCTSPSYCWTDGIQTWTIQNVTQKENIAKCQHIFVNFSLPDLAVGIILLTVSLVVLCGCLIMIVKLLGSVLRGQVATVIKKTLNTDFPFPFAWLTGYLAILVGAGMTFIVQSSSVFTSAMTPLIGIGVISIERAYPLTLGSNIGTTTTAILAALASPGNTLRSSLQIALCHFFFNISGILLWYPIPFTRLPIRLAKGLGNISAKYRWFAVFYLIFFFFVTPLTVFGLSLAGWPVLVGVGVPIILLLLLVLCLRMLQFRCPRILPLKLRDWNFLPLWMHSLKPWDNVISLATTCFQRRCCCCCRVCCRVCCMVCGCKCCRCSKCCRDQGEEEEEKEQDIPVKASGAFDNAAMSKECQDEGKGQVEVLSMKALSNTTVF
Protocol: as §1, §2

gastric emptying = experiment: Gastric emptying assay in mice; type: in vivo, mouse; details: doses up to 100 mg/kg API
Protocol: Male C57BL/6 mice, approximately 7–8 weeks old (18–21 g), were fasted overnight. Then, the mice were orally administered a single dose of vehicle (water) or varying doses of LY3358966 SDD dissolved in water. Fifteen minutes later, radiolabeled phosphate was given by oral gavage. Another 15 min later, the animals were sacrificed, and intact stomachs were collected and placed in 50‐ml conical tubes. Ten milliliter of 1 N NaOH was added to each tube and the stomachs were digested at 37°C overnight. Radioactivity in 100 µl digested stomach homogenate was quantitated by scintillation counting. The percent radiolabeled phosphate recovered in the stomach was calculated as the percentage of dpm recovered in the stomach versus the total dpm of radiolabeled phosphate administered.

[1] = tested on: intestinal phosphate absorption; experiment: Recovery of radiolabeled phosphate in feces of mice; type: in vivo, mouse
Protocol: Male C57BL/6 male mice, 9 weeks old (23–28 g, n = 10/group), were dosed with either placebo or LY3358966 SDD (9 mg/kg API) dissolved in water at t = −4.25, −0.25, and 3.75 h. The animals were fasted from t = −4 to t = 0 h. At t = 0, the animals were dosed with radiolabeled phosphate as described above and were given free access to food. Feces were collected at 6, 24, and 48 h, digested overnight at 37°C in 1 N NaOH, and the recovered radioactivity was determined. Most of the radiolabeled phosphate was recovered in the first 24 h. […] In all cases, the investigators collecting feces were blinded to the treatment.

[2] = 9 mg/kg API x 3 doses at 4-h intervals

Question: What does the source list for `CC1(C)CN(C(=O)NCCCCO)CCN1Cc1cccc(C(=O)Nc2sc3c(c2C(=O)Nc2cc(F)c(CCc4ccc(C(=O)O)cc4)c(F)c2)CCCC3)c1` [LY3358966, 4‐[2‐[2,6‐difluoro‐4‐[[2‐[[3‐[[4‐(4‐hydroxybutylcarbamoyl)‐2,2‐dimethyl‐piperazin‐1‐yl]methyl]benzoyl]amino]‐4,5,6,7‐tetrahydrobenzothiophene‐3‐carbonyl]amino]phenyl]ethyl]benzoic acid]?
Answer: IC50 (human NPT2b): 32.4 nM; IC50 (mouse NPT2b): 43.9 nM; effect on gastric emptying (gastric emptying): no effect on gastric emptying; 33P Recovered in Feces (0-6 hrs), Mean ± SEM [1, 2]: 6.08 ± 1.68%; 33P Recovered in Feces (6-24 hrs), Mean ± SEM [1, 2]: 10.77 ± 1.57%; 33P Recovered in Feces (24-48 hrs), Mean ± SEM [1, 2]: 1.60 ± 0.08%; 33P Recovered in Total Feces (0-48 hrs), Mean ± SEM ([1]; 9 mg/kg API x 3 doses at 4-h intervals, 9 mg/kg): 18.44% and 18.44 ± 1.27%; increase in radiolabeled phosphate recovered in feces versus vehicle ([1]; 48 h, 9 mg/kg API x 3, 9 mg/kg): 8.6 % of the dose and 8.58 % of the dose
